According to US12492225B2, “Melanocyte-regulating peptides” (IDP DISCOVERY PHARMA, S.L., priority 2019, dated 2025):

System: B16-F10 melanoma cells
Experiment: Measurement of melanin content in B16-F10 melanoma cells
Assay type: cell-based, mouse
Details: KA at 1 uM; FIG. 1
Method: B16-F10 melanoma cells were seeded into 25 cm^2 cell culture flask and incubated for 24 h. Then, 0.1 μM α-MSH was added and cells were treated with the aforementioned peptides at doses lower than their respective IC50 for a total of 48 h incubation. After washing twice with phosphate buffered saline, cells were dissolved in 1 mL of 1N NaOH. For measurement of melanin content, 100 μL aliquots of solution were then placed in 96-well plates and the absorbance was measured at 450 nm using microplate reader. Anti-melanin activity was expressed by the percentage of melanin to that of untreated melanoma cells. As positive control Kojic Acid (KA) was used at different concentrations (0.1, 1 and 10 μM).

O=c1cc(CO)occ1O [KA, kojic acid]
reduction of melanin compared with the peptides of the invention (F22) at the same concentration: the reduction was substantially lower
